Measured values from ChEMBL document CHEMBL1201862, “PubChem BioAssay data set” (2004).
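The compound was tested at five concentrations on cells cultured in 96-well plates, with a 48-hour exposure period. GI50: concentration for 50% inhibition of growth.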 Activity calls are given as the source filed them. Rule as the data show it: active = GI50 up to about 1.1 µM and inactive = higher.

Key:
Test in all cases: growth of human tumour cells (NCI), 48 h
CCRF-CEM = tested on: CCRF-CEM
M14 = tested on: M14
TK-10 = tested on: TK-10
SK-MEL-5 = tested on: SK-MEL-5
U-251 = tested on: U-251
A498 = tested on: A498
HL-60 = tested on: HL-60
Malme-3M = tested on: Malme-3M
SF-268 = tested on: SF-268
KM12 = tested on: KM12
SK-MEL-28 = tested on: SK-MEL-28
COLO 205 = tested on: COLO 205
SN12C = tested on: SN12C
SF-539 = tested on: SF-539
SK-OV-3 = tested on: SK-OV-3
UACC-257 = tested on: UACC-257
HOP-92 = tested on: HOP-92
HCT-15 = tested on: HCT-15

Row | Compound | GI50 (CCRF-CEM) | GI50 (M14) | GI50 (TK-10) | GI50 (SK-MEL-5) | GI50 (U-251) | GI50 (A498) | GI50 (HL-60) | GI50 (Malme-3M) | GI50 (SF-268) | GI50 (KM12) | GI50 (SK-MEL-28) | GI50 (COLO 205) | GI50 (SN12C) | GI50 (SF-539) | GI50 (SK-OV-3) | GI50 (UACC-257) | GI50 (HOP-92) | GI50 (HCT-15)
1 | O=C1C[C@@H]2[C@@H](C=CC23CC3)N1O | > 100 µM (inactive) | > 100 µM (inactive) | > 100 µM (inactive) | > 100 µM (inactive) | > 100 µM (inactive) | > 100 µM (inactive) | > 100 µM (inactive) | > 100 µM (inactive) | > 100 µM (inactive) | > 100 µM (inactive) | > 100 µM (inactive) | > 100 µM (inactive) | > 100 µM (inactive) | > 100 µM (inactive) | > 100 µM (inactive) | > 100 µM (inactive) | – | –
2 | N#Cc1ccc(Sc2nc3ccccc3[nH]2)cc1 | > 100 µM (inactive) | – | > 100 µM (inactive) | 34.4 µM (inactive) | > 100 µM (inactive) | – | 84.3 µM (inactive) | > 100 µM (inactive) | > 100 µM (inactive) | > 100 µM (inactive) | > 100 µM (inactive) | > 100 µM (inactive) | > 100 µM (inactive) | > 100 µM (inactive) | > 100 µM (inactive) | > 100 µM (inactive) | > 100 µM (inactive) | –
3 | O=C(NCCCCCCNC(=O)NC1OCC(O)C(O)C1O)NC1OCC(O)C(O)C1O (centres undefined) | > 100 µM (inactive) | > 100 µM (inactive) | > 100 µM (inactive) | > 100 µM (inactive) | > 100 µM (inactive) | – | > 100 µM (inactive) | > 100 µM (inactive) | > 100 µM (inactive) | > 100 µM (inactive) | > 100 µM (inactive) | > 100 µM (inactive) | > 100 µM (inactive) | > 100 µM (inactive) | > 100 µM (inactive) | – | > 100 µM (inactive) | > 100 µM
4 | CSc1nc(SC)c2c(C#N)n[nH]c2n1 | > 100 µM (inactive) | > 100 µM (inactive) | 49.4 µM (inactive) | > 100 µM (inactive) | > 100 µM (inactive) | > 100 µM (inactive) | – | > 100 µM (inactive) | > 100 µM (inactive) | > 100 µM (inactive) | > 100 µM (inactive) | > 100 µM (inactive) | > 100 µM (inactive) | > 100 µM (inactive) | > 100 µM (inactive) | > 100 µM (inactive) | 48.5 µM (inactive) | > 100 µM
5 | NCCCNCCCCN(CCCN)/[N+]([O-])=N\O | > 100 µM (inactive) | > 100 µM (inactive) | – | > 100 µM (inactive) | – | – | > 100 µM (inactive) | > 100 µM (inactive) | > 100 µM (inactive) | > 100 µM (inactive) | > 100 µM (inactive) | > 100 µM (inactive) | > 100 µM (inactive) | > 100 µM (inactive) | – | > 100 µM (inactive) | > 100 µM (inactive) | > 100 µM
6 | CC1(OCc2ccccc2)C(=O)N2C1NCC2(C)C (centres undefined) | > 100 µM (inactive) | > 100 µM (inactive) | > 100 µM (inactive) | > 100 µM (inactive) | > 100 µM (inactive) | > 100 µM (inactive) | > 100 µM (inactive) | > 100 µM (inactive) | > 100 µM (inactive) | – | > 100 µM (inactive) | > 100 µM (inactive) | > 100 µM (inactive) | > 100 µM (inactive) | – | > 100 µM (inactive) | – | > 100 µM
7 | CC(C)c1cc(C(C)C)c(S(=O)(=O)NN)c(C(C)C)c1 | – | – | > 100 µM (inactive) | > 100 µM (inactive) | > 100 µM (inactive) | > 100 µM (inactive) | – | > 100 µM (inactive) | > 100 µM (inactive) | > 100 µM (inactive) | > 100 µM (inactive) | > 100 µM (inactive) | > 100 µM (inactive) | > 100 µM (inactive) | – | > 100 µM (inactive) | > 100 µM (inactive) | > 100 µM
8 | CC(=O)O[C@@H]1C2C(=O)OC(=O)C2C2CCC[C@]23O[C@H]13 (some centres undefined) | > 100 µM (inactive) | > 100 µM (inactive) | > 100 µM (inactive) | > 100 µM (inactive) | > 100 µM (inactive) | > 100 µM (inactive) | > 100 µM (inactive) | > 100 µM (inactive) | > 100 µM (inactive) | > 100 µM (inactive) | > 100 µM (inactive) | > 100 µM (inactive) | > 100 µM (inactive) | > 100 µM (inactive) | > 100 µM (inactive) | > 100 µM (inactive) | – | > 100 µM
9 | CCc1cccc(C(C)C)c1NC(=O)C(=O)CC(=O)c1c(C)[n+]([O-])c2ccccc2[n+]1[O-] | > 100 µM (inactive) | > 100 µM (inactive) | > 100 µM (inactive) | > 100 µM (inactive) | > 100 µM (inactive) | > 100 µM (inactive) | > 100 µM (inactive) | > 100 µM (inactive) | > 100 µM (inactive) | – | > 100 µM (inactive) | > 100 µM (inactive) | > 100 µM (inactive) | > 100 µM (inactive) | > 100 µM (inactive) | – | > 100 µM (inactive) | > 100 µM
10 | ClCCC[Si]12OCCN(CCO1)CCO2 | > 100 µM (inactive) | – | > 100 µM (inactive) | > 100 µM (inactive) | > 100 µM (inactive) | > 100 µM (inactive) | > 100 µM (inactive) | > 100 µM (inactive) | > 100 µM (inactive) | > 100 µM (inactive) | > 100 µM (inactive) | > 100 µM (inactive) | > 100 µM (inactive) | > 100 µM (inactive) | > 100 µM (inactive) | > 100 µM (inactive) | > 100 µM (inactive) | –
11 | CO[C@@]1(c2ccccc2)O[C@H]2OCCC2[C@H]1c1ccc(Cl)cc1 (some centres undefined) | – | 37.6 µM (inactive) | 40.8 µM (inactive) | 17 µM (inactive) | 28.2 µM (inactive) | 25.5 µM (inactive) | – | 28.5 µM (inactive) | 56.9 µM (inactive) | 47 µM (inactive) | 63.8 µM (inactive) | 20 µM (inactive) | 51.5 µM (inactive) | 51.6 µM (inactive) | – | 22 µM (inactive) | – | 36.1 µM
12 | CCOC(=O)C1=C(C)Nc2ccccc2S1 | > 100 µM (inactive) | > 100 µM (inactive) | > 100 µM (inactive) | > 100 µM (inactive) | > 100 µM (inactive) | > 100 µM (inactive) | – | > 100 µM (inactive) | > 100 µM (inactive) | > 100 µM (inactive) | > 100 µM (inactive) | 77.8 µM (inactive) | > 100 µM (inactive) | > 100 µM (inactive) | > 100 µM (inactive) | > 100 µM (inactive) | 44 µM (inactive) | > 100 µM
13 | Clc1cc(Cl)c2ns[s+]c2c1Cl | > 100 µM (inactive) | > 100 µM (inactive) | > 100 µM (inactive) | > 100 µM (inactive) | > 100 µM (inactive) | > 100 µM (inactive) | > 100 µM (inactive) | 37.8 µM (inactive) | > 100 µM (inactive) | > 100 µM (inactive) | > 100 µM (inactive) | > 100 µM (inactive) | > 100 µM (inactive) | > 100 µM (inactive) | > 100 µM (inactive) | > 100 µM (inactive) | – | –
14 | O=C(CC1S/C(=N\c2ccccc2Cl)NC1=O)Nc1ccc(Cl)cc1 (centres undefined) | > 100 µM (inactive) | > 100 µM (inactive) | > 100 µM (inactive) | > 100 µM (inactive) | > 100 µM (inactive) | > 100 µM (inactive) | 94.4 µM (inactive) | > 100 µM (inactive) | > 100 µM (inactive) | > 100 µM (inactive) | > 100 µM (inactive) | 26.4 µM (inactive) | > 100 µM (inactive) | > 100 µM (inactive) | > 100 µM (inactive) | > 100 µM (inactive) | – | 16.3 µM
15 | COc1ccc(/C=C2\N=C(c3ccccc3)N(Nc3nnc(NN4C(=O)/C(=C/c5ccc(OC)cc5)N=C4c4ccccc4)c4ccccc34)C2=O)cc1 | 30.7 µM (inactive) | > 100 µM (inactive) | – | 48.5 µM (inactive) | 94.8 µM (inactive) | > 100 µM (inactive) | 30 µM (inactive) | – | 81.8 µM (inactive) | 17.2 µM (inactive) | 71.1 µM (inactive) | > 100 µM (inactive) | 68.5 µM (inactive) | 70.6 µM (inactive) | – | > 100 µM (inactive) | > 100 µM (inactive) | 40.8 µM
16 | CN(C)CCS/C(=N\c1ccccc1)n1cccc1 | 57.7 µM (inactive) | > 100 µM (inactive) | > 100 µM (inactive) | 35.9 µM (inactive) | > 100 µM (inactive) | – | 32.7 µM (inactive) | 89.5 µM (inactive) | 32.4 µM (inactive) | 82.8 µM (inactive) | > 100 µM (inactive) | > 100 µM (inactive) | 54.1 µM (inactive) | 66.5 µM (inactive) | > 100 µM (inactive) | 42.9 µM (inactive) | 24 µM (inactive) | 98.4 µM
17 | CCN1c2ccccc2C(C(SC)S(=O)(=O)c2ccc(C)cc2)c2c1[nH]c(=O)n(C)c2=O (centres undefined) | > 100 µM (inactive) | – | > 100 µM (inactive) | > 100 µM (inactive) | > 100 µM (inactive) | > 100 µM (inactive) | 89.9 µM (inactive) | 88.1 µM (inactive) | > 100 µM (inactive) | > 100 µM (inactive) | > 100 µM (inactive) | > 100 µM (inactive) | > 100 µM (inactive) | > 100 µM (inactive) | > 100 µM (inactive) | > 100 µM (inactive) | > 100 µM (inactive) | > 100 µM
18 | O=C(CC(=O)C(=O)Nc1ccccc1)CC(c1ccccc1)c1c(O)c2ccccc2oc1=O (centres undefined) | > 100 µM (inactive) | > 100 µM (inactive) | > 100 µM (inactive) | > 100 µM (inactive) | – | > 100 µM (inactive) | > 100 µM (inactive) | > 100 µM (inactive) | > 100 µM (inactive) | > 100 µM (inactive) | > 100 µM (inactive) | > 100 µM (inactive) | – | > 100 µM (inactive) | > 100 µM (inactive) | – | 23.4 µM (inactive) | > 100 µM
